Measured values taken from PMC5218480 (PLoS ONE, 2017).

Tested on: MV-4-11 cells
Assay: Gene expression microarray analysis (Affymetrix PrimeView) and GSEA
Format: cell-based, human
Design: RFU PODN (11730768_x_at) / Fold change /veh PODN (11730768_x_at) / RFU LINC00158 (11744669_a_at) / Fold change /veh LINC00158 (11744669_a_at) / RFU DUSP10 (11751237_a_at) / Fold change /veh DUSP10 (11751237_a_at) / RFU ID3 (11757404_x_at) / Fold change /veh ID3 (11757404_x_at) / RFU PLEKHG5 (11737974_s_at) / Fold change /veh PLEKHG5 (11737974_s_at) / RFU LRRC4B (11730491_at) / Fold change /veh LRRC4B (11730491_at) / RFU GIMAP4 (11747438_a_at) / Fold change /veh GIMAP4 (11747438_a_at) / RFU KRT8 (11758183_x_at) / Fold change /veh KRT8 (11758183_x_at) / RFU CNN1 (11734310_a_at) / Fold change /veh CNN1 (11734310_a_at) / RFU VPS37D (11726825_at) / Fold change /veh VPS37D (11726825_at) / RFU C10orf10 (11716522_x_at) / Fold change /veh C10orf10 (11716522_x_at) / RFU KIR2DL2 /// KIR2DL4 /// KIR2DL5A /// KIR2DL5B /// KIR2DS1 /// KIR2DS2 /// KIR2DS3 /// KIR2DS4 /// KIR3DL3 /// KIR3DL3 /// KIR3DS1 (11738374_at) / Fold change /veh KIR2DL2 /// KIR2DL4 /// KIR2DL5A /// KIR2DL5B /// KIR2DS1 /// KIR2DS2 /// KIR2DS3 /// KIR2DS4 /// KIR3DL3 /// KIR3DL3 /// KIR3DS1 (11738374_at) / RFU C1QL1 (11718748_at) / Fold change /veh C1QL1 (11718748_at) / RFU TMPRSS4 (11747572_a_at) / Fold change /veh TMPRSS4 (11747572_a_at) / RFU HAMP (11756126_x_at) / Fold change /veh HAMP (11756126_x_at) / RFU RNFT2 (11725882_a_at) / Fold change /veh RNFT2 (11725882_a_at) / RFU NR4A2 (11747474_a_at) / Fold change /veh NR4A2 (11747474_a_at) / RFU ABCC12 (11746883_a_at) / Fold change /veh ABCC12 (11746883_a_at) / RFU TMEM136 (11760407_x_at) / Fold change /veh TMEM136 (11760407_x_at) / RFU CLDN22 /// WWC2 (11732394_at) / Fold change /veh CLDN22 /// WWC2 (11732394_at) / RFU HLA-DPB1 (11760878_x_at) / Fold change /veh HLA-DPB1 (11760878_x_at) / RFU SPINT1 (11716480_a_at) / Fold change /veh SPINT1 (11716480_a_at) / RFU GAP43 (11754022_s_at) / Fold change /veh GAP43 (11754022_s_at) / RFU A4GNT (11735810_at) / Fold change /veh A4GNT (11735810_at) / RFU PRB3 (11715151_x_at) / Fold change /veh PRB3 (11715151_x_at) / RFU TUBB4B (11761932_at) / Fold change /veh TUBB4B (11761932_at) / RFU CAPN14 (11732068_a_at) / Fold change /veh CAPN14 (11732068_a_at) / RFU TMCC2 (11721928_a_at) / Fold change /veh TMCC2 (11721928_a_at) / RFU IRGQ (11745062_a_at) / Fold change /veh IRGQ (11745062_a_at) / RFU FAM174B (11720279_a_at) / Fold change /veh FAM174B (11720279_a_at) / RFU TMPRSS4 (11748680_a_at) / Fold change /veh TMPRSS4 (11748680_a_at) / RFU FAM212B (11763350_a_at) / Fold change /veh FAM212B (11763350_a_at) / RFU PLEKHG5 (11743358_a_at) / Fold change /veh PLEKHG5 (11743358_a_at) / RFU ZSCAN30 (11745921_a_at) / Fold change /veh ZSCAN30 (11745921_a_at) / RFU CMKLR1 (11741424_a_at) / Fold change /veh CMKLR1 (11741424_a_at) / RFU LOC101060620 /// MAPK8IP1 (11723275_at) / Fold change /veh LOC101060620 /// MAPK8IP1 (11723275_at) / RFU SPTSSB (11747773_x_at) / Fold change /veh SPTSSB (11747773_x_at) / RFU PRSS12 (11739890_at) / Fold change /veh PRSS12 (11739890_at) / RFU BIN1 (11741810_x_at) / Fold change /veh BIN1 (11741810_x_at) / RFU WNT11 (11732464_a_at) / Fold change /veh WNT11 (11732464_a_at) / RFU C10orf10 (11716521_a_at) / Fold change /veh C10orf10 (11716521_a_at) / RFU C5orf56 (11738089_at) / Fold change /veh C5orf56 (11738089_at) / RFU CYB561 (11721691_x_at) / Fold change /veh CYB561 (11721691_x_at) / RFU ANKRD19P (11752326_a_at) / Fold change /veh ANKRD19P (11752326_a_at) / RFU OR2T12 /// OR2T33 /// OR2T8 (11738714_s_at) / Fold change /veh OR2T12 /// OR2T33 /// OR2T8 (11738714_s_at) / RFU VCAN (11748164_a_at) / Fold change /veh VCAN (11748164_a_at) / RFU JSRP1 (11732532_at) / Fold change /veh JSRP1 (11732532_at) / RFU KRTAP10-11 (11738290_x_at) / Fold change /veh KRTAP10-11 (11738290_x_at) / RFU MYO3A (11730013_a_at) / Fold change /veh MYO3A (11730013_a_at) / RFU EBF3 (11725865_a_at) / Fold change /veh EBF3 (11725865_a_at) / RFU CAMK2N1 (11719241_x_at) / Fold change /veh CAMK2N1 (11719241_x_at) / RFU C5orf56 (11738088_a_at) / Fold change /veh C5orf56 (11738088_a_at) / RFU OLFML3 (11715873_a_at) / Fold change /veh OLFML3 (11715873_a_at) / RFU LOC100653217 /// NTM (11731650_a_at) / Fold change /veh LOC100653217 /// NTM (11731650_a_at) / RFU MAPK11 (11762145_a_at) / Fold change /veh MAPK11 (11762145_a_at) / RFU FIZ1 (11724087_x_at) / Fold change /veh FIZ1 (11724087_x_at) / RFU OASL (11726364_x_at) / Fold change /veh OASL (11726364_x_at) / RFU SOX15 (11748057_x_at) / Fold change /veh SOX15 (11748057_x_at) / RFU CD79A (11719716_a_at) / Fold change /veh CD79A (11719716_a_at) / RFU HIST1H1D (11736915_at) / Fold change /veh HIST1H1D (11736915_at) / RFU CASKIN2 (11723855_a_at) / Fold change /veh CASKIN2 (11723855_a_at) / RFU LOC730098 (11760151_x_at) / Fold change /veh LOC730098 (11760151_x_at) / RFU OR4N2 (11742367_at) / Fold change /veh OR4N2 (11742367_at) / RFU PRRT2 (11749266_a_at) / Fold change /veh PRRT2 (11749266_a_at) / RFU SNX32 (11753110_a_at) / Fold change /veh SNX32 (11753110_a_at) / RFU CDHR5 (11726645_a_at) / Fold change /veh CDHR5 (11726645_a_at) / RFU RCAN1 (11760418_a_at) / Fold change /veh RCAN1 (11760418_a_at) / RFU FAM167A (11723789_a_at) / Fold change /veh FAM167A (11723789_a_at) / RFU FAM26E (11764081_at) / Fold change /veh FAM26E (11764081_at) / RFU ISYNA1 (11749810_s_at) / Fold change /veh ISYNA1 (11749810_s_at) / RFU ACY1 (11761880_at) / Fold change /veh ACY1 (11761880_at) / RFU 11764098_at / Fold change /veh 11764098_at / RFU SAMD14 (11745864_x_at) / Fold change /veh SAMD14 (11745864_x_at) / RFU NPB (11741838_a_at) / Fold change /veh NPB (11741838_a_at) / RFU TMPRSS6 (11731388_a_at) / Fold change /veh TMPRSS6 (11731388_a_at) / RFU KRTAP10-2 (11738614_at) / Fold change /veh KRTAP10-2 (11738614_at) / RFU ARHGAP8 /// PRR5-ARHGAP8 (11727945_x_at) / Fold change /veh ARHGAP8 /// PRR5-ARHGAP8 (11727945_x_at) / RFU KRTAP5-7 /// NADSYN1 (11734609_at) / Fold change /veh KRTAP5-7 /// NADSYN1 (11734609_at) / RFU RASL12 (11751679_a_at) / Fold change /veh RASL12 (11751679_a_at) / RFU CDKN2B (11736163_a_at) / Fold change /veh CDKN2B (11736163_a_at) / RFU PRF1 (11729649_at) / Fold change /veh PRF1 (11729649_at) / RFU, ZNF638 /// ZNF638-IT1 / Fold change vs veh, ZNF638 /// ZNF638-IT1 / RFU, PANK3 / Fold change vs veh, PANK3 / RFU, SH3YL1 / Fold change vs veh, SH3YL1 / RFU, ZEB2 / Fold change vs veh, ZEB2 / RFU, NRIP1 / Fold change vs veh, NRIP1 / RFU, PTTG1IP / Fold change vs veh, PTTG1IP / RFU, CAPN2 / Fold change vs veh, CAPN2 / RFU, MED14 / Fold change vs veh, MED14 / RFU, SNORA58 / Fold change vs veh, SNORA58 / RFU, C1orf63 / Fold change vs veh, C1orf63 / RFU, LRRFIP1 / Fold change vs veh, LRRFIP1 / RFU, NDUFAF7 / Fold change vs veh, NDUFAF7 / RFU, SLC12A2 / Fold change vs veh, SLC12A2 / RFU, IBTK / Fold change vs veh, IBTK / RFU, ESF1 / Fold change vs veh, ESF1 / Fold change vs veh, TMEM50B / RFU, TAOK1 / Fold change vs veh, TAOK1 / RFU, ACBD3 / Fold change vs veh, ACBD3 / RFU, TMA16 / Fold change vs veh, TMA16 / RFU, RWDD3 / Fold change vs veh, RWDD3 / RFU, BCAT1 / Fold change vs veh, BCAT1 / RFU, EDEM3 / Fold change vs veh, EDEM3 / RFU, TMEM33 / Fold change vs veh, TMEM33 / RFU, WDR75 / Fold change vs veh, WDR75 / RFU, AHCTF1 / Fold change vs veh, AHCTF1 / RFU, TFRC / Fold change vs veh, TFRC / RFU, ZDHHC17 / Fold change vs veh, ZDHHC17 / RFU, NOM1 / Fold change vs veh, NOM1 / RFU, ARL8B / Fold change vs veh, ARL8B / RFU, ZBTB11 / Fold change vs veh, ZBTB11 / RFU, TAMM41 / Fold change vs veh, TAMM41 / RFU, KIAA1704 /// LOC100996395 / Fold change vs veh, KIAA1704 /// LOC100996395 / RFU, ING1 / Fold change vs veh, ING1 / RFU, TRMT61B / Fold change vs veh, TRMT61B / RFU, FUBP3 / Fold change vs veh, FUBP3 / RFU, TP53 / Fold change vs veh, TP53 / RFU, TNKS2 / Fold change vs veh, TNKS2 / RFU, ZFP14 / Fold change vs veh, ZFP14 / RFU, ACTR2 / Fold change vs veh, ACTR2 / RFU, PPP3R1 / Fold change vs veh, PPP3R1 / RFU, PIK3R1 / Fold change vs veh, PIK3R1 / RFU, HNRNPA1 / Fold change vs veh, HNRNPA1 / RFU, RNF170 / Fold change vs veh, RNF170 / RFU, ZNF28 / Fold change vs veh, ZNF28 / RFU, RNGTT / Fold change vs veh, RNGTT / RFU, OGT / Fold change vs veh, OGT / RFU, BRD1 / Fold change vs veh, BRD1 / RFU, MARS / Fold change vs veh, MARS / RFU, ZNF655 / Fold change vs veh, ZNF655 / RFU, FAHD1 / Fold change vs veh, FAHD1 / RFU, BDP1 / Fold change vs veh, BDP1 / RFU, LRRCC1 / Fold change vs veh, LRRCC1 / RFU, ARID1A / Fold change vs veh, ARID1A / RFU, ZNF146 / Fold change vs veh, ZNF146 / RFU, ZNF330 / Fold change vs veh, ZNF330 / RFU, GPN3 / Fold change vs veh, GPN3 / RFU, C9orf123 / Fold change vs veh, C9orf123 / RFU, N4BP2L2 / Fold change vs veh, N4BP2L2 / RFU, ARFIP1 / Fold change vs veh, ARFIP1 / RFU, FAM179B / Fold change vs veh, FAM179B / RFU, BCL10 / Fold change vs veh, BCL10 / RFU, UHRF1BP1L / Fold change vs veh, UHRF1BP1L / RFU, BET1 / Fold change vs veh, BET1 / RFU, CNOT2 / Fold change vs veh, CNOT2 / RFU, ZNF268 / Fold change vs veh, ZNF268 / Fold change vs veh, ZNF507 / RFU, DGCR2 / Fold change vs veh, DGCR2 / RFU, WDSUB1 / Fold change vs veh, WDSUB1 / Fold change vs veh, HSP90B1 /// MIR3652 / RFU, ADSS / Fold change vs veh, ADSS / RFU, GK / Fold change vs veh, GK / RFU, ZNF148 / Fold change vs veh, ZNF148 / RFU, TAF9 / Fold change vs veh, TAF9 / RFU, SLC1A5 / Fold change vs veh, SLC1A5 / RFU, SLMO2 / Fold change vs veh, SLMO2 / RFU, ABCC4 / Fold change vs veh, ABCC4 / RFU, LOC101060439 /// RAP1B / Fold change vs veh, LOC101060439 /// RAP1B / RFU, RFX7 / Fold change vs veh, RFX7 / RFU, GTPBP10 / Fold change vs veh, GTPBP10 / RFU, CNEP1R1 / Fold change vs veh, CNEP1R1 / RFU, BIVM-ERCC5 /// ERCC5 / Fold change vs veh, BIVM-ERCC5 /// ERCC5 / RFU, ILF3 / Fold change vs veh, ILF3 / RFU 11762660_at / Fold change /veh 11762660_at / RFU VCAN (11757783_s_at) / Fold change /veh VCAN (11757783_s_at) / RFU DDX43 (11728927_at) / Fold change /veh DDX43 (11728927_at) / RFU KRT8 (11758188_x_at) / Fold change /veh KRT8 (11758188_x_at) / RFU NKD1 (11759106_at) / Fold change /veh NKD1 (11759106_at) / RFU SRD5A1 (11742802_a_at) / Fold change /veh SRD5A1 (11742802_a_at) / RFU TPSAB1 /// TPSB2 (11721975_s_at) / Fold change /veh TPSAB1 /// TPSB2 (11721975_s_at) / RFU GSTM3 (11746129_a_at) / Fold change /veh GSTM3 (11746129_a_at) / RFU IL23R (11737362_x_at) / Fold change /veh IL23R (11737362_x_at) / RFU TMEM51 (11727254_a_at) / Fold change /veh TMEM51 (11727254_a_at) / RFU PIWIL2 (11732686_x_at) / Fold change /veh PIWIL2 (11732686_x_at) / RFU ORM1 (11744905_x_at) / Fold change /veh ORM1 (11744905_x_at) / RFU CCDC152 (11743942_at) / Fold change /veh CCDC152 (11743942_at) / RFU ECM1 (11717891_a_at) / Fold change /veh ECM1 (11717891_a_at) / RFU IL23R (11748794_a_at) / Fold change /veh IL23R (11748794_a_at) / RFU TNFAIP8L3 (11732012_x_at) / Fold change /veh TNFAIP8L3 (11732012_x_at) / RFU MBOAT4 (11741988_at) / Fold change /veh MBOAT4 (11741988_at) / RFU 11764193_at / Fold change /veh 11764193_at / RFU TMEM53 (11763286_at) / Fold change /veh TMEM53 (11763286_at) / RFU MAGEB2 (11727129_at) / Fold change /veh MAGEB2 (11727129_at) / RFU TMEM200A (11744735_a_at) / Fold change /veh TMEM200A (11744735_a_at) / RFU CCDC152 (11751479_a_at) / Fold change /veh CCDC152 (11751479_a_at) / RFU FAM211A (11726209_a_at) / Fold change /veh FAM211A (11726209_a_at) / RFU RGS16 (11746705_a_at) / Fold change /veh RGS16 (11746705_a_at) / RFU VCAN (11755009_s_at) / Fold change /veh VCAN (11755009_s_at) / RFU RHOB (11743442_s_at) / Fold change /veh RHOB (11743442_s_at) / RFU RGS16 (11720943_a_at) / Fold change /veh RGS16 (11720943_a_at) / RFU RGS16 (11720944_at) / Fold change /veh RGS16 (11720944_at) / RFU, VPS4B / Fold change vs veh, VPS4B / RFU, CREB1 / Fold change vs veh, CREB1 / RFU, DNAJC13 / Fold change vs veh, DNAJC13 / RFU, GNAQ / Fold change vs veh, GNAQ / RFU, CDK5R1 / Fold change vs veh, CDK5R1 / RFU, ZRANB3 / Fold change vs veh, ZRANB3 / RFU, CUL4A / Fold change vs veh, CUL4A / RFU, CCNY / Fold change vs veh, CCNY / RFU, UFL1 / Fold change vs veh, UFL1 / RFU, COG3 / Fold change vs veh, COG3 / RFU, DIAPH2 / Fold change vs veh, DIAPH2 / RFU, SKA2 / Fold change vs veh, SKA2 / RFU, AFF3 / Fold change vs veh, AFF3 / RFU, LMF1 / Fold change vs veh, LMF1 / RFU, IPO11 / Fold change vs veh, IPO11 / RFU, DFFB / Fold change vs veh, DFFB / RFU, FOXP1 / Fold change vs veh, FOXP1 / RFU, CARD8 / Fold change vs veh, CARD8 / RFU, STRN3 / Fold change vs veh, STRN3 / RFU, ADK / Fold change vs veh, ADK / RFU, RASSF2 / Fold change vs veh, RASSF2 / RFU, WIPF1 / Fold change vs veh, WIPF1 / RFU, LARP1B / Fold change vs veh, LARP1B / RFU, RASA1 / Fold change vs veh, RASA1 / RFU, RB1 / Fold change vs veh, RB1 / RFU, PPFIA1 / Fold change vs veh, PPFIA1 / RFU, MAT2A / Fold change vs veh, MAT2A / RFU, CCT5 / Fold change vs veh, CCT5 / RFU, WDR92 / Fold change vs veh, WDR92 / RFU, CUX1 / Fold change vs veh, CUX1 / RFU, TTC7A / Fold change vs veh, TTC7A / RFU, TMEM135 / Fold change vs veh, TMEM135 / RFU, DEPTOR / Fold change vs veh, DEPTOR / RFU, CPM / Fold change vs veh, CPM / RFU, DNAJB6 / Fold change vs veh, DNAJB6 / RFU, CACNA2D3 / Fold change vs veh, CACNA2D3 / RFU, DTX4 / Fold change vs veh, DTX4 / RFU, TFCP2 / Fold change vs veh, TFCP2 / RFU, GMCL1 /// GMCL1P1 / Fold change vs veh, GMCL1 /// GMCL1P1 / RFU, AEBP2 / Fold change vs veh, AEBP2 / RFU, SNHG1 /// SNORD22 /// SNORD25 /// SNORD26 /// SNORD27 /// SNORD28 /// SNORD29 /// SNORD31 / Fold change vs veh, SNHG1 /// SNORD22 /// SNORD25 /// SNORD26 /// SNORD27 /// SNORD28 /// SNORD29 /// SNORD31 / Fold change (Aza/veh), C12orf56 (ProbeSet 11735607_a_at) / Fold change (ACY-1035/veh), C12orf56 (ProbeSet 11735607_a_at) / Fold change (Aza/veh), FGFR1OP (ProbeSet 11751329_s_at) / Fold change (ACY-1035/veh), FGFR1OP (ProbeSet 11751329_s_at) / Fold change (Aza/veh), VPS36 (ProbeSet 11739960_a_at) / Fold change (ACY-1035/veh), VPS36 (ProbeSet 11739960_a_at) / RFU SYPL1 (11715823_x_at) / Fold change /veh SYPL1 (11715823_x_at) / RFU IGFBP7 (11715501_s_at) / Fold change /veh IGFBP7 (11715501_s_at) / RFU REEP3 (11722064_at) / Fold change /veh REEP3 (11722064_at) / RFU IGLL1 (11728026_x_at) / Fold change /veh IGLL1 (11728026_x_at): dose or concentration left out as unconfirmed
Details: MV-4-11 cells, 48 hours

## Nc1ncn([C@@H]2O[C@H](CO)[C@@H](O)[C@H]2O)c(=O)n1 [azacitidine]
  Fold change /veh EBF3 (11725865_a_at): 1.12
